Experimental data published in patent US20240058335A1, “METHODS FOR TREATMENT OF CANCER USING ABL INHIBITORS AND DRUGS TARGETING THE MEVALONATE PATHWAY” (Duke University, priority 2021, published 2024).

Test system: PC9 cells
Experiment: Pooled metabolically focused CRISPR/Cas9 loss-of-function screen with GNF5 (gene-level three scores)
Type: cell-based, human
Protocol: POOLED CRISPR SCREEN. PC9 cells were seeded into 12, six-well plates at 0.25e6 cells/well. A separate plate was also prepared for no puromycin and puromycin controls of non-transduced cells. Cells were transduced at a MOI of 0.2. 24 hours after viral transduction, cells were replated into puromycin-containing media. A sample was collected at 48 hours of puromycin exposure to confirm library coverage in the transduced population. Transduced cells were expanded in puromycin for a total of 10 days prior to drug introduction, at which point the transduced cell population was split into vehicle (DMSO) and GNF5 treatment conditions and maintained for up to two weeks. Cells were treated with 2 μM GNF5 which corresponded to 20-30% loss in cell viability following a 3-day dose response assay. Cells were counted, replated, and drug replenished every day. At any given point during the screen, each replicate was represented by a minimum of 12E6 cells, sufficient to provide 1000×coverage of the library (1000 cells per unique sgRNA). Samples of 25E6 cells were collected upon screen initiation, termination, and at weekly intervals. Following completion of the screens, DNA was extracted (DNeasy Blood & Tissue Kit, QIAGEN) and prepared for sequencing as previously described.
SCREEN ANALYSIS. Deep sequencing was performed on an Illumina Nextseq platform (75 bp, paired-ended) to identify differences in library composition. All sequencing was performed by the Duke University genome sequencing facility. Barcoded reads were mapped to the guide RNA library using bcSeq to obtain the counts for each guide RNA. Determinations of genetic essentiality and drug sensitization/resistance were made by evaluating differential guide compositions between the initial population and subsequent drug-treated and vehicle-treated cells populations. Briefly, the fractional representation (FR) for the guide reads within a sample was normalized to the total reads attributed to that sample. A direct comparison between two samples was represented by the quotient of the respective FRs in the log 2 scale, which is termed the depletion metric (DM). The guide-level DMs for each gene were then collapsed to gene-level scores by taking the average of the top three most depleted constructs resulting in a biased analysis focused on depleted genes. Genes represented by fewer than 5 guides per condition were excluded from analysis. In the 2,322-gene library, 7 genes (representing 0.3% of the total library) were excluded. Genetic essentiality was calculated by considering the depletion/enrichment of the vehicle-treated (DSMO) population over time (DMSO final/DSMO initial). Drug sensitization/resistance was calculated by considering the depletion/enrichment of the drug-treated population relative to the vehicle-treated population (Drug final/DMSO final). All depletion/enrichment effects are reported as log 2 ratios. All analyses were conducted using the R statistical environment (https://www.r-project.org/) along with extension packages from the comprehensive R archive network (CRAN; available at cran.r-project.org/) and the Bioconductor project. The analyses were carried out with adherence to the principles of reproducible analysis using the knitr package for generation of dynamic reports and gitlab for source code management. The code for replicating the statistical analysis was made accessible through a public source code repository, available at gitlab.oit.duke.edu/dcibioinformatics/pubs/pendergast-crispr-barcode.
Because many metabolic genes are known to be essential to cellular viability, determining the effect of cell-essential genetic loss on apoptosis is difficult. […] The remaining cell-essential genes are captured by the screen.
Metabolically focused CRISPR/Cas9 loss-of-function screen identifies HMGCR inhibition with statin therapy as an apoptotic sensitizer in lung cancer cells. […]

What does the source list for `O=C(NCCO)c1cccc(-c2cc(Nc3ccc(OC(F)(F)F)cc3)ncn2)c1` [GNF5]?
log2 TS (CCBL1 knockout): −0.2362; log2 TS (CCBL2 knockout): −0.00176; log2 TS (CCDC102B knockout): −0.3186; log2 TS (CCDC155 knockout): −0.128; log2 TS (CDA knockout): −0.3678; log2 TS (CDADC1 knockout): −0.189; log2 TS (CDC14A knockout): −0.5269; log2 TS (CDC14B knockout): −0.3312; log2 TS (CDC25A knockout): −0.3125; log2 TS (CDC25B knockout): −0.5769; log2 TS (CDC25C knockout): 0.02041; log2 TS (CDKN3 knockout): −0.2304; log2 TS (CDO1 knockout): −0.3626; log2 TS (CECR1 knockout): 0.1378; log2 TS (CEL knockout): −0.2626; log2 TS (CERK knockout): −0.2067; log2 TS (CERKL knockout): −0.4755; log2 TS (CERS1 knockout): −0.5675; log2 TS (CERS2 knockout): −0.1757; log2 TS (CERS3 knockout): −0.3966; log2 TS (CERS4 knockout): −0.0552; log2 TS (CERS5 knockout): −0.09954; log2 TS (CERS6 knockout): −0.2316; log2 TS (CES1 knockout): −0.1103; log2 TS (CES2 knockout): −0.115; log2 TS (CES3 knockout): −0.1816; log2 TS (CFTR knockout): −0.552; log2 TS (CHAT knockout): 0.03889; log2 TS (CHI3L1 knockout): −0.08904; log2 TS (CHI3L2 knockout): −0.203; log2 TS (CHIA knockout): −0.1854; log2 TS (CHID1 knockout): −0.2305; log2 TS (CHIT1 knockout): −0.1013; log2 TS (CHKA knockout): 0.1899; log2 TS (CHPF knockout): −0.1196; log2 TS (CHPT1 knockout): 0.05664; log2 TS (CHRNA1 knockout): −0.2091; log2 TS (CHRNA2 knockout): −0.09543; log2 TS (CHRNA3 knockout): 0.193; log2 TS (CHRNA4 knockout): −0.2119; log2 TS (CHRNA5 knockout): −0.1927; log2 TS (CHRNA6 knockout): −0.00193; log2 TS (CHRNA7 knockout): −0.4166; log2 TS (CHRNA9 knockout): −0.2542; log2 TS (CHRNA10 knockout): −0.09517; log2 TS (CHRNB1 knockout): −0.07599; log2 TS (CHRNB2 knockout): −0.2245; log2 TS (CHRNB3 knockout): −0.3189; log2 TS (CHRNB4 knockout): −0.4141; log2 TS (CHRND knockout): −0.5686; log2 TS (CHRNE knockout): −0.137; log2 TS (CHRNG knockout): 0.05205; log2 TS (CHST1 knockout): −0.0245; log2 TS (CHST6 knockout): −0.3091; log2 TS (CKB knockout): −0.247; log2 TS (CKM knockout): −0.3126; log2 TS (CKMT2 knockout): −0.2525; log2 TS (CLC knockout): −0.314; log2 TS (CLCA1 knockout): −0.142; log2 TS (CLCA2 knockout): −0.4614; log2 TS (CLCA4 knockout): 0.05396; log2 TS (CLCN1 knockout): −0.1326; log2 TS (CLCN2 knockout): −0.1747; log2 TS (CLCN3 knockout): −0.494; log2 TS (CLCN4 knockout): 0.0428; log2 TS (CLCN5 knockout): −0.4161; log2 TS (CLCN6 knockout): −0.3635; log2 TS (CLCN7 knockout): −0.1319; log2 TS (CLCNKA knockout): −0.1822; log2 TS (CLCNKB knockout): −0.3352; log2 TS (CLIC1 knockout): −0.09123; log2 TS (CLIC2 knockout): −0.1159; log2 TS (CLIC3 knockout): 0.07472; log2 TS (CLIC4 knockout): −0.06827; log2 TS (CLIC5 knockout): −0.3935; log2 TS (CLIC6 knockout): −0.02678; log2 TS (CLYBL knockout): 0.05734; log2 TS (CMAS knockout): −0.3056; log2 TS (CMPK1 knockout): −0.1483; log2 TS (CNDP1 knockout): −0.1314; log2 TS (CNDP2 knockout): −0.1743; log2 TS (CNGA1 knockout): −0.1817; log2 TS (CNGA2 knockout): −0.3543; log2 TS (CNGA3 knockout): 0.05484; log2 TS (CNGA4 knockout): −0.3821; log2 TS (CNGB1 knockout): −0.4165; log2 TS (CNGB3 knockout): −0.1968; log2 TS (COA5 knockout): −0.2719; log2 TS (COASY knockout): 0.06804; log2 TS (COMT knockout): −0.2352; log2 TS (COMTD1 knockout): −0.123; log2 TS (COQ3 knockout): −0.1115; log2 TS (COQ5 knockout): −0.3619; log2 TS (COQ6 knockout): −0.1357; log2 TS (COQ9 knockout): 0.009879; log2 TS (COX10 knockout): −0.3233; log2 TS (COX11 knockout): −0.3148; log2 TS (COX15 knockout): −0.6246; log2 TS (COX17 knockout): −0.66; log2 TS (COX20 knockout): −0.2164
